Source: US11229623B2 (GlaxoSmithKline Intellectual Property (No.2) Limited, priority 2016, dated 2022)
Where a name gives a salt, the structure may show the parent alone.

These compounds were tested against T1, human TRPV4 (Homo sapiens, UniProt Q9HBA0) (assay: FLIPR assay for hTRPV4 expressed in BHK cells: inhibition of Agonist Compound-induced calcium signal). Details: hTRPV4 in BHK/AC9 cells, FLIPR calcium signal, agonist at EC80; reported as range class; read-out: IC50.
T1 construct: expressed in transfected cells; host or cells: BHK/AC9 cells transduced with BacMam virus
Type: cell-based
Procedure, shortened: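 BHK/AC9 cells transduced with BacMam human TRPV4 (MOI 78), plated 15,000 per well and cultured 24 h at 37° C. Loaded with 2 μM Fluo-4 AM plus 500 μM Brilliant Black in HBSS for 1-1.5 h at room temperature in the dark; intracellular calcium signal read by FLIPR fluorescence.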

T1 sequence (Q9HBA0 whole entry): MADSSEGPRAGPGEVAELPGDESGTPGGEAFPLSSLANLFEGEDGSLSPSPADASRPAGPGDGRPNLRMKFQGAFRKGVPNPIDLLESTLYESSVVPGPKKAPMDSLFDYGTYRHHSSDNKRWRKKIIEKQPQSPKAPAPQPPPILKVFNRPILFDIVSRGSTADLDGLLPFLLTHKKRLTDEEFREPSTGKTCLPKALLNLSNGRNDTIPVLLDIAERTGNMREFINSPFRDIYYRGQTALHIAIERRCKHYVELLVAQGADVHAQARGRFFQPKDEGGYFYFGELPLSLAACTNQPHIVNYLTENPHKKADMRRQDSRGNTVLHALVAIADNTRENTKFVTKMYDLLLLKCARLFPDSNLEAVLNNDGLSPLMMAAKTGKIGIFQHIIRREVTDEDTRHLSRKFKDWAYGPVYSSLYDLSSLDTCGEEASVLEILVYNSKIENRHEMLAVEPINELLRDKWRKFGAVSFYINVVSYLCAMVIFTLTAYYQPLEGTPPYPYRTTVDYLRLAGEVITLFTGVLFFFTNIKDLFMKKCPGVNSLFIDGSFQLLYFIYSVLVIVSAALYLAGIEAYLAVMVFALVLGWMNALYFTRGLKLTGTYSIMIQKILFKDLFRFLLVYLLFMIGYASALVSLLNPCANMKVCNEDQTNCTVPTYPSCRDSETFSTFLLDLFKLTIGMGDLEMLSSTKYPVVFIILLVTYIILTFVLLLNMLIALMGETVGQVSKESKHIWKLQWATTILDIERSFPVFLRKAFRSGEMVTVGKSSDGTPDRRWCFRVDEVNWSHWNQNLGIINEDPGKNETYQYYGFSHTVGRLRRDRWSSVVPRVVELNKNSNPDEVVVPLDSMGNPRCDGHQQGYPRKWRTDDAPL

SMILES	IC50 [nM]
CCCCOc1cc(C#N)c(F)cc1O[C@H]1CN(S(=O)(=O)c2ccc(C(F)(F)F)cc2C#N)C[C@@]1(O)CO [Example 164, 5-butoxy-4-(((3S,4R)-1-((2-cyano-4-(trifluoromethyl)phenyl)sulfonyl)-4-hydroxy-4-(hydroxymethyl)pyrrolidin-3-yl)oxy)-2-fluorobenzonitrile]	0.1 to 10
N#Cc1cc(OCc2ccccc2)c(O[C@H]2CN(S(=O)(=O)c3ccc(C(F)(F)F)cc3C#N)C[C@@]2(O)CO)cc1F [Example 163, 5-(benzyloxy)-4-(((3S,4R)-1-((2-cyano-4-(trifluoromethyl)phenyl)sulfonyl)-4-hydroxy-4-(hydroxymethyl)pyrrolidin-3-yl)oxy)-2-fluorobenzonitrile]	0.1 to 10
N#Cc1ccc(O[C@H]2CN(S(=O)(=O)c3c(Cl)cc(C(F)(F)F)cc3Cl)C[C@@]2(O)CO)cc1F [Example 96, 4-(((3S,4R)-1-((2,6-dichloro-4-(trifluoromethyl)phenyl)sulfonyl)-4-hydroxy-4-(hydroxymethyl)pyrrolidin-3-yl)oxy)-2-fluorobenzonitrile]	10 to 100
N#Cc1ccc(O[C@H]2CN(S(=O)(=O)c3ccc(C(F)(F)F)cn3)C[C@@]2(O)CO)cc1F [Example 84, 2-fluoro-4-(((3S,4R)-4-hydroxy-4-(hydroxymethyl)-1-((5-(trifluoromethyl)pyridin-2-yl)sulfonyl)pyrrolidin-3-yl)oxy)benzonitrile]	10 to 100
N#Cc1ccc(O[C@H]2CN(S(=O)(=O)c3ccc(C(F)(F)F)cc3)C[C@@]2(O)CO)cc1F [Example 70, 2-fluoro-4-(((3S,4R)-4-hydroxy-4-(hydroxymethyl)-1-((4-(trifluoromethyl)phenyl)sulfonyl)pyrrolidin-3-yl)oxy)benzonitrile]	10 to 100
C[C@@H](N)[C@]1(O)CN(S(=O)(=O)c2ccc(Cl)cn2)C[C@@H]1Oc1ccc(C#N)c(F)c1 [Example 256, 4-(((3S,4R)-4-((R)-1-aminoethyl)-1-((5-chloropyridin-2-yl)sulfonyl)-4-hydroxypyrrolidin-3-yl)oxy)-2-fluorobenzonitrile, 2,2,2-trifluoroacetate]	10 to 100
N#Cc1ccc(O[C@H]2CN(S(=O)(=O)c3c(Cl)cc(Cl)cc3Cl)C[C@@]2(O)CO)cn1 [Example 76, 5-(((3S,4R)-4-hydroxy-4-(hydroxymethyl)-1-((2,4,6-trichlorophenyl)sulfonyl)pyrrolidin-3yl)oxy)picolinonitrile]	10 to 100
N#Cc1cc(OCC(F)(F)F)c(O[C@H]2CN(S(=O)(=O)c3ccc(Cl)cn3)C[C@@]2(O)CO)cc1F [Example 187, 4-(((3S,4R)-1-((5-chloropyridin-2-yl)sulfonyl)-4-hydroxy-4-(hydroxymethyl)pyrrolidin-3-yl)oxy)-2-fluoro-5-(2,2,2-trifluoroethoxy) benzonitrile]	0.1 to 10
N#Cc1cc(C(F)(F)F)ccc1S(=O)(=O)N1C[C@H](Oc2cc(F)c(F)c(F)c2)[C@](O)(CO)C1 [Example 26, 2-(((3R,4S)-3-hydroxy-3-(hydroxymethyl)-4-(3,4,5-trifluorophenoxy)pyrrolidin-1-yl)sulfonyl)-5-(trifluoromethyl)benzonitrile]	10 to 100
N#Cc1ccc(O[C@H]2CN(S(=O)(=O)c3ccc(Br)cn3)C[C@@]2(O)CO)cc1F [Example 105, 4-(((3S,4R)-1-((5-bromopyridin-2-yl)sulfonyl)-4-hydroxy-4-(hydroxymethyl)pyrrolidin-3-yl)oxy)-2-fluorobenzonitrile]	10 to 100
CC#Cc1ccc(S(=O)(=O)N2C[C@H](Oc3ccc(C#N)c(F)c3)[C@](O)(CO)C2)c(C#N)c1 [Example 219, 4-(((3S,4R)-1-((2-cyano-4-(prop-1-yn-1-yl)phenyl)sulfonyl)-4-hydroxy-4-(hydroxymethyl)pyrrolidin-3-yl)oxy)-2-fluorobenzonitrile]	0.1 to 10
N#Cc1ccc(O[C@H]2CN(S(=O)(=O)c3ccc(Cl)cc3C#N)C[C@@]23CNCCO3)cc1F [compound 253]	0.1 to 10
N#Cc1ccc(S(=O)(=O)N2C[C@H](Oc3cc(F)c(C#N)cc3OCC(F)(F)F)[C@](O)(CO)C2)cc1 [Example 178, 4-(((3S,4R)-1-((4-cyanophenyl)sulfonyl)-4-hydroxy-4-(hydroxymethyl)pyrrolidin-3-yl)oxy)-2-fluoro-5-(2,2,2-trifluoroethoxy) benzonitrile]	0.1 to 10
N#Cc1cc(Cl)ccc1S(=O)(=O)N1C[C@H](Oc2ccc(Cl)cc2)[C@](O)(CO)C1 [Example 154, 5-chloro-2-(((3R,4S)-4-(4-chlorophenoxy)-3-hydroxy-3-(hydroxymethyl)pyrrolidin-1-yl)sulfonyl)benzonitrile]	0.1 to 10
CN1CCO[C@]2(C1)CN(S(=O)(=O)c1ccc(Cl)cc1C#N)C[C@@H]2Oc1ccc(C#N)c(F)c1 [Example 252, 4-(((4S,5R)-2-((4-chloro-2-cyanophenyl)sulfonyl)-9-methyl-6-oxa-2,9-diazaspiro[4.5]decan-4-yl)oxy)-2-fluorobenzonitrile]	0.1 to 10
N#Cc1cc(Cl)ccc1S(=O)(=O)N1C[C@H](Oc2ccc(Cl)cc2)[C@@](O)(CO)C1 [Example 151, 5-chloro-2-(((3S,4S)-4-(4-chlorophenoxy)-3-hydroxy-3-(hydroxymethyl)pyrrolidin-1-yl)sulfonyl)benzonitrile]	0.1 to 10
N#Cc1ccc(O[C@H]2CN(S(=O)(=O)c3ccc(Br)cc3C#N)C[C@]2(O)CO)cc1F [Example 143, 4-(((3S,4S)-1-((4-bromo-2-cyanophenyl)sulfonyl)-4-hydroxy-4-(hydroxymethyl)pyrrolidin-3-yl)oxy)-2-fluorobenzonitrile]	0.1 to 10
N#Cc1ccc(O[C@H]2CN(S(=O)(=O)c3ccc(Cl)cn3)C[C@@]2(O)CO)c(OCC(F)(F)F)c1 [Example 186, 4-(((3S,4R)-1-((5-chloropyridin-2-yl)sulfonyl)-4-hydroxy-4-(hydroxymethyl)pyrrolidin-3-yl)oxy)-3-(2,2,2-trifluoroethoxy) benzonitrile]	10 to 100
N#Cc1ccc(O[C@H]2CN(S(=O)(=O)c3ccc(Cl)cc3C#N)C[C@]2(O)CO)cc1F [Example 139, 4-(((3S,4S)-1-((4-chloro-2-cyanophenyl)sulfonyl)-4-hydroxy-4-(hydroxymethyl)pyrrolidin-3-yl)oxy)-2-fluorobenzonitrile]	0.1 to 10
N#Cc1ccc(O[C@H]2CN(S(=O)(=O)c3ccc(C(F)(F)F)c(F)c3)C[C@@]2(O)CO)cc1F [Example 116, 2-fluoro-4-(((3S,4R)-1-((3-fluoro-4-(trifluoromethyl)phenyl)sulfonyl)-4-hydroxy-4-(hydroxymethyl)pyrrolidin-3-yl)oxy)benzonitrile]	10 to 100
Cc1cc(C(F)(F)F)ccc1S(=O)(=O)N1C[C@H](Oc2ccc(C#N)c(F)c2)[C@](O)(CO)C1 [Example 81, 2-fluoro-4-(((3S,4R)-4-hydroxy-4-(hydroxymethyl)-1-((2-methyl-4-(trifluoromethyl)phenyl)sulfonyl)pyrrolidin-3-yl)oxy)benzonitrile]	10 to 100
N#Cc1ncc(O[C@H]2CN(S(=O)(=O)c3ccc(Cl)cc3Cl)C[C@@]2(O)CO)cc1F [Example 36, 5-(((3S,4R)-1-((2,4-dichlorophenyl)sulfonyl)-4-hydroxy-4-(hydroxymethyl)pyrrolidin-3-yl)oxy)-3-fluoropicolinonitrile]	0.1 to 10
N#Cc1ccc(O[C@H]2CN(S(=O)(=O)c3ccc(Cl)nc3Cl)C[C@@]2(O)CO)cc1F [Example 92, 4-(((3S,4R)-1-((2,6-dichloropyridin-3-yl)sulfonyl)-4-hydroxy-4-(hydroxymethyl)pyrrolidin-3-yl)oxy)-2-fluorobenzonitrile]	0.1 to 10
C#Cc1ccc(S(=O)(=O)N2C[C@H](Oc3ccc(C#N)c(F)c3)[C@](O)(CO)C2)nc1 [Example 228, 4-(((3S,4R)-1-((5-ethynylpyridin-2-yl)sulfonyl)-4-hydroxy-4-(hydroxymethyl)pyrrolidin-3-yl)oxy)-2-fluorobenzonitrile]	10 to 100
N#Cc1ccc(O[C@H]2CN(S(=O)(=O)c3ccc(C(F)(F)F)nc3)C[C@@]2(O)CN)cc1F [Example 245, 4-(((3S,4S)-4-(aminomethyl)-4-hydroxy-1-((6-(trifluoromethyl)pyridin-3-yl)sulfonyl)pyrrolidin-3-yl)oxy)-2-fluorobenzonitrile, Hydrochloride]	10 to 100
N#Cc1cc(Cl)ccc1S(=O)(=O)N1C[C@H](Oc2ccc(C(F)(F)F)cc2)[C@@](O)(CO)C1 [Example 152, 5-chloro-2-(((3S,4S)-3-hydroxy-3-(hydroxymethyl)-4-(4-(trifluoromethyl)phenoxy)pyrrolidin-1-yl)sulfonyl)benzonitrile]	0.1 to 10
CC(C)C[C@@H](O)[C@]1(O)CN(S(=O)(=O)c2ccc(Cl)cn2)C[C@@H]1Oc1ccc(C#N)c(F)c1 [Example 197, 4-(((3S,4R)-1-((5-chloropyridin-2-yl)sulfonyl)-4-hydroxy-4-((R)-1-hydroxy-3-methylbutyl)pyrrolidin-3-yl)oxy)-2-fluorobenzonitrile]	0.1 to 10
CC(C)COc1cc(C#N)c(F)cc1O[C@H]1CN(S(=O)(=O)c2ccc(C(F)(F)F)cc2C#N)C[C@@]1(O)CO [Example 165, 4-(((3S,4R)-1-((2-cyano-4-(trifluoromethyl)phenyl)sulfonyl)-4-hydroxy-4-(hydroxymethyl)pyrrolidin-3-yl)oxy)-2-fluoro-5-isobutoxybenzonitrile]	0.1 to 10
C[C@H](O)[C@]1(O)CN(S(=O)(=O)c2ccc(C(F)(F)F)cc2C#N)C[C@@H]1Oc1ccc(C#N)c(F)c1 [Example 190, 4-(((3S,4R)-1-((2-cyano-4-(trifluoromethyl)phenyl)sulfonyl)-4-hydroxy-4-(1-hydroxyethyl)pyrrolidin-3-yl)oxy)-2-fluorobenzonitrile]	0.1 to 10
N#Cc1ccc(O[C@H]2CN(S(=O)(=O)c3ccc(C(F)(F)F)s3)C[C@@]2(O)CO)cc1F [Example 112, 2-fluoro-4-(((3S,4R)-4-hydroxy-4-(hydroxymethyl)-1-((5-(trifluoromethyl)thiophen-2-yl)sulfonyl)pyrrolidin-3-yl)oxy)benzonitrile]	10 to 100
